Results: patent US8722849B2, “Polypeptides” (Novo Nordisk A/S, priority 2011, dated 2014)
Starred links: 1 amine or outer side, 2 acyl side, 3 side chain; linkers in the order of their positions; H or OH if unused. Positions of bridges follow the written chain, without caps; N, C: chain ends. Residues, ends and D or L forms follow the SMILES beside them. *: point of attachment. C20 diacid = O=C(O)CCCCCCCCCCCCCCCCCCC(=O)*; γGlu = O=C(O)[C@H](CCC(=O)[*:2])N[*:1]

Legend:
Format in all cases: cell-based
[1] = molecular target: T1, human calcitonin receptor (Homo sapiens, UniProt P30988); test: Assay (II)a functional CRE-luciferase assay, human calcitonin receptor; conditions: Table 7; human calcitonin (CTa) receptor
T1 construct: expressed in transfected cells; host or cells: BHK570
T1 sequence (P30988 25-474): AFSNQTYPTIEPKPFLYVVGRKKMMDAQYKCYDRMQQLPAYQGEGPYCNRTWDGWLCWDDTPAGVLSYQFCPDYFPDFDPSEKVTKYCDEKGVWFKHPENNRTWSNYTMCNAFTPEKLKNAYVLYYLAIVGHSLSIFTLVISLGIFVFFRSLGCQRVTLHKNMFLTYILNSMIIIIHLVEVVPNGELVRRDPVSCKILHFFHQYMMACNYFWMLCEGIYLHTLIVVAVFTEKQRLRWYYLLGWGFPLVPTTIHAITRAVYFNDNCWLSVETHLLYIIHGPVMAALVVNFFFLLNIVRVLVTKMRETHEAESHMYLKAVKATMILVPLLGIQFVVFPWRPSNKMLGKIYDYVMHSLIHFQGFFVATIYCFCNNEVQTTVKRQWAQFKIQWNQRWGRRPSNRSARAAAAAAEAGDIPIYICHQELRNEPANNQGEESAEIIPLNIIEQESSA

[2] = molecular target: T2, rat amylin 3(a) receptor (rat calcitonin(a) receptor + rat RAMP3) (Rattus norvegicus, UniProt P32214+Q9JJ73); test: Assay (II)b functional cAMP FlashPlate assay, rat amylin receptor; conditions: Table 11
T2 construct: expressed in transfected cells; host or cells: BHK tk'ts 13
T2 sequence (P32214 25-479 isoform P32214-2 limits assumed): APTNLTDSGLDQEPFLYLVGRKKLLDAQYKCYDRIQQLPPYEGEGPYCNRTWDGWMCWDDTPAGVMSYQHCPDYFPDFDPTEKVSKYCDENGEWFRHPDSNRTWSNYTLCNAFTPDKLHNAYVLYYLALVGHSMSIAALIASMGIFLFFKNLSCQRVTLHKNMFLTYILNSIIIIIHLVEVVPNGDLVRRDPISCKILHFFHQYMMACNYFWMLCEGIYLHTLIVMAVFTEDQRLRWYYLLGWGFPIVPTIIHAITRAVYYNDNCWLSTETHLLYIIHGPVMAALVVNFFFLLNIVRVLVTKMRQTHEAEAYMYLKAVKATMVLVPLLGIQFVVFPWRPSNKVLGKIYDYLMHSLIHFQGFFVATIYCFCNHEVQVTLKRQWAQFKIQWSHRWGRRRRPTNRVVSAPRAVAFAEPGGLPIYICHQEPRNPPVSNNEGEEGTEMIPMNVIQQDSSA
T2 sequence (Q9JJ73 23-147 partner): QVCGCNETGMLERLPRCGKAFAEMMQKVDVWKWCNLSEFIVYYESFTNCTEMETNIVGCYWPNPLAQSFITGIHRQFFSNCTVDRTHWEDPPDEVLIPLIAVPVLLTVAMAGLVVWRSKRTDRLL
Outline: (§1)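 BHK tk'ts 13 cells transiently transfected with rat calcitonin(a) receptor, alone or with rat RAMP3 (amylin 3(a)), were stimulated 24 hours later with sample for 30 min in buffer containing IBMX. cAMP measured by competitive radioactive FlashPlate assay, scintillation read after 3 h detection incubation.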

[3] = molecular target: T3, rat calcitonin (a) receptor (Rattus norvegicus, UniProt P32214); test: Assay (II)b functional cAMP FlashPlate assay, rat calcitonin receptor; conditions: Table 11; read-out: CTa receptor rat EC50
T3 construct: expressed in transfected cells; host or cells: BHK tk'ts 13
T3 sequence (P32214 25-479 isoform P32214-2 limits assumed): T2 sequence (P32214 25-479 isoform P32214-2 limits assumed)
Outline: as §1

SMILES	EC50 [1]	EC50 [2]	EC50 [3]
CC[C@H](C)[C@H](NC(=O)[C@@H]1CCCN1C(=O)CNC(=O)[C@H](Cc1ccccc1)NC(=O)[C@H](CC(N)=O)NC(=O)[C@H](CC(N)=O)NC(=O)[C@H](CO)NC(=O)[C@H](CO)NC(=O)[C@H](CCCNC(=N)N)NC(=O)[C@H](Cc1c[nH]cn1)NC(=O)[C@H](CC(C)C)NC(=O)[C@H](Cc1ccccc1)NC(=O)[C@H](CCC(=O)O)NC(=O)[C@H](C)NC(=O)[C@H](CC(C)C)NC(=O)[C@H](CCCNC(=N)N)NC(=O)[C@H](CCC(N)=O)NC(=O)[C@@H](NC(=O)[C@H](C)NC(=O)[C@@H]1CSSC[C@H](NC(=O)[C@H](CCC(=O)O)NC(=O)CC[C@H](NC(=O)CCCCCCCCCCCCCCCCCCC(=O)O)C(=O)O)C(=O)N[C@@H](CC(N)=O)C(=O)N[C@@H]([C@@H](C)O)C(=O)N[C@@H](C)C(=O)N[C@@H]([C@@H](C)O)C(=O)N1)[C@@H](C)O)C(=O)N[C@@H](CC(C)C)C(=O)N1CCC[C@H]1C(=O)N1CCC[C@H]1C(=O)N[C@H](C(=O)N[C@@H](CC(N)=O)C(=O)N[C@H](C(=O)NCC(=O)N[C@@H](CO)C(=O)N[C@@H](CC(N)=O)C(=O)N[C@H](C(=O)N1CCC[C@H]1C(N)=O)[C@@H](C)O)C(C)C)[C@@H](C)O [Example 10, N-alpha-[(S)-4-Carboxy-4-(19-carboxynonadecanoylamino)butyryl]-[Glu1,Glu14,His17,Arg18,Pro37]-pramlintide] ({C20 diacid-γGlu}-ECNTATCATQRLAEFLHRSSNNFGPILPPTNVGSNTP-NH2; disulfide 2-7)	0.0864 nM	0.374 nM	0.806 nM
CC[C@H](C)[C@H](NC(=O)[C@@H]1CCCN1C(=O)CNC(=O)[C@H](Cc1ccccc1)NC(=O)[C@H](CC(N)=O)NC(=O)[C@H](CC(N)=O)NC(=O)[C@H](CO)NC(=O)[C@H](CO)NC(=O)[C@H](Cc1c[nH]cn1)NC(=O)[C@H](Cc1c[nH]cn1)NC(=O)[C@H](CC(C)C)NC(=O)[C@H](Cc1ccccc1)NC(=O)[C@H](CCC(=O)O)NC(=O)[C@H](C)NC(=O)[C@H](CC(C)C)NC(=O)[C@H](CCCNC(=N)N)NC(=O)[C@H](CCC(N)=O)NC(=O)[C@@H](NC(=O)[C@H](C)NC(=O)[C@@H]1CSSC[C@H](NC(=O)[C@H](Cc2c[nH]cn2)NC(=O)CC[C@H](NC(=O)CCCCCCCCCCCCCCCCCCC(=O)O)C(=O)O)C(=O)N[C@@H](CC(N)=O)C(=O)N[C@@H]([C@@H](C)O)C(=O)N[C@@H](C)C(=O)N[C@@H]([C@@H](C)O)C(=O)N1)[C@@H](C)O)C(=O)N[C@@H](CC(C)C)C(=O)N1CCC[C@H]1C(=O)N1CCC[C@H]1C(=O)N[C@H](C(=O)N[C@@H](CC(N)=O)C(=O)N[C@H](C(=O)NCC(=O)N[C@@H](CO)C(=O)N[C@@H](CC(N)=O)C(=O)N[C@H](C(=O)N[C@@H](Cc1ccc(O)cc1)C(N)=O)[C@@H](C)O)C(C)C)[C@@H](C)O [Example 18, N-alpha-[(S)-4-Carboxy-4-(19-carboxynonadecanoylamino)butyryl]-[His1,Glu14,His17]-pramlintide] ({C20 diacid-γGlu}-HCNTATCATQRLAEFLHHSSNNFGPILPPTNVGSNTY-NH2; disulfide 2-7 (inferred); C-terminus assumed)	0.126 nM	0.187 nM	1.17 nM
CC[C@H](C)[C@H](NC(=O)[C@@H]1CCCN1C(=O)CNC(=O)[C@H](Cc1ccccc1)NC(=O)[C@H](CC(N)=O)NC(=O)[C@H](CC(N)=O)NC(=O)[C@H](CO)NC(=O)[C@H](CO)NC(=O)[C@H](Cc1c[nH]cn1)NC(=O)[C@H](Cc1c[nH]cn1)NC(=O)[C@H](CC(C)C)NC(=O)[C@H](Cc1ccccc1)NC(=O)[C@H](CCC(=O)O)NC(=O)[C@H](C)NC(=O)[C@H](CC(C)C)NC(=O)[C@H](CCCNC(=N)N)NC(=O)[C@H](CCC(N)=O)NC(=O)[C@@H](NC(=O)[C@H](C)NC(=O)[C@@H]1CSSC[C@H](NC(=O)[C@H](Cc2c[nH]cn2)NC(=O)[C@H](Cc2c[nH]cn2)NC(=O)[C@H](Cc2c[nH]cn2)NC(=O)CC[C@H](NC(=O)CCCCCCCCCCCCCCCCCCC(=O)O)C(=O)O)C(=O)N[C@@H](CC(N)=O)C(=O)N[C@@H]([C@@H](C)O)C(=O)N[C@@H](C)C(=O)N[C@@H]([C@@H](C)O)C(=O)N1)[C@@H](C)O)C(=O)N[C@@H](CC(C)C)C(=O)N1CCC[C@H]1C(=O)N1CCC[C@H]1C(=O)N[C@H](C(=O)N[C@@H](CC(N)=O)C(=O)N[C@H](C(=O)NCC(=O)N[C@@H](CO)C(=O)N[C@@H](CCCNC(=N)N)C(=O)N[C@H](C(=O)N[C@@H](Cc1ccc(O)cc1)C(N)=O)[C@@H](C)O)C(C)C)[C@@H](C)O [Example 21, N-alpha-[(S)-4-Carboxy-4-(19-carboxynonadecanoylamino)butyryl]-His-His-[His1,Glu14,His17,Arg35]-pramlintide] ({C20 diacid-γGlu}-HHHCNTATCATQRLAEFLHHSSNNFGPILPPTNVGSRTY-NH2; disulfide 4-9 (inferred))	0.429 nM	0.133 nM	1.34 nM
CC[C@H](C)[C@H](NC(=O)[C@@H]1CCCN1C(=O)CNC(=O)[C@H](Cc1ccccc1)NC(=O)[C@H](CC(N)=O)NC(=O)[C@H](CC(N)=O)NC(=O)[C@H](CO)NC(=O)[C@H](CO)NC(=O)[C@H](Cc1c[nH]cn1)NC(=O)[C@H](Cc1c[nH]cn1)NC(=O)[C@H](CC(C)C)NC(=O)[C@H](Cc1ccccc1)NC(=O)[C@H](CCC(=O)O)NC(=O)[C@H](C)NC(=O)[C@H](CC(C)C)NC(=O)[C@H](CCCNC(=N)N)NC(=O)[C@H](CCC(N)=O)NC(=O)[C@@H](NC(=O)[C@H](C)NC(=O)[C@@H]1CSSC[C@H](NC(=O)[C@H](Cc2c[nH]cn2)NC(=O)[C@H](Cc2c[nH]cn2)NC(=O)[C@H](Cc2c[nH]cn2)NC(=O)CC[C@H](NC(=O)CCCCCCCCCCCCCCCCCCC(=O)O)C(=O)O)C(=O)N[C@@H](CCCNC(=N)N)C(=O)N[C@@H]([C@@H](C)O)C(=O)N[C@@H](C)C(=O)N[C@@H]([C@@H](C)O)C(=O)N1)[C@@H](C)O)C(=O)N[C@@H](CC(C)C)C(=O)N1CCC[C@H]1C(=O)N1CCC[C@H]1C(=O)N[C@H](C(=O)N[C@@H](CC(N)=O)C(=O)N[C@H](C(=O)NCC(=O)N[C@@H](CO)C(=O)N[C@@H](CC(N)=O)C(=O)N[C@H](C(=O)N[C@@H](Cc1ccc(O)cc1)C(N)=O)[C@@H](C)O)C(C)C)[C@@H](C)O [Example 22, N-alpha-[(S)-4-Carboxy-4-(19-carboxynonadecanoylamino)butyryl]-His-His-[His1,Arg3,Glu14,His17]-pramlintide] ({C20 diacid-γGlu}-HHHCRTATCATQRLAEFLHHSSNNFGPILPPTNVGSNTY-NH2; disulfide 4-9 (inferred))	0.157 nM	0.261 nM	1.29 nM
CC[C@H](C)[C@H](NC(=O)[C@@H]1CCCN1C(=O)CNC(=O)[C@H](Cc1ccccc1)NC(=O)[C@H](CC(N)=O)NC(=O)[C@H](CC(N)=O)NC(=O)[C@H](CO)NC(=O)[C@H](CO)NC(=O)[C@H](Cc1c[nH]cn1)NC(=O)[C@H](Cc1c[nH]cn1)NC(=O)[C@H](CC(C)C)NC(=O)[C@H](Cc1ccccc1)NC(=O)[C@H](CCC(=O)O)NC(=O)[C@H](C)NC(=O)[C@H](CC(C)C)NC(=O)[C@H](CCCNC(=N)N)NC(=O)[C@H](CCC(N)=O)NC(=O)[C@@H](NC(=O)[C@H](C)NC(=O)[C@@H]1CSSC[C@H](NC(=O)[C@H](CCCCN)NC(=O)[C@H](CCC(=O)O)NC(=O)CC[C@H](NC(=O)CCCCCCCCCCCCCCCCCCC(=O)O)C(=O)O)C(=O)N[C@@H](CC(N)=O)C(=O)N[C@@H]([C@@H](C)O)C(=O)N[C@@H](C)C(=O)N[C@@H]([C@@H](C)O)C(=O)N1)[C@@H](C)O)C(=O)N[C@@H](CC(C)C)C(=O)N1CCC[C@H]1C(=O)N1CCC[C@H]1C(=O)N[C@H](C(=O)N[C@@H](CC(N)=O)C(=O)N[C@H](C(=O)NCC(=O)N[C@@H](CO)C(=O)N[C@@H](CC(N)=O)C(=O)N[C@H](C(=O)N[C@@H](Cc1ccc(O)cc1)C(N)=O)[C@@H](C)O)C(C)C)[C@@H](C)O [Example 26, N-alpha-[(S)-4-Carboxy-4-(19-carboxynonadecanoylamino)butyryl]-Glu-[Glu14,His17]-pramlintide] ({C20 diacid-γGlu}-EKCNTATCATQRLAEFLHHSSNNFGPILPPTNVGSNTY-NH2; disulfide 3-8 (inferred); C-terminus assumed)	0.214 nM	0.476 nM	1.39 nM
